In US5714142A, “Method and compositions for increasing the serum half-life of pharmacologically active agents by binding to transthyretin-selective ligands” (priority 1996, dated 1998):
Where two headings read alike, the source gives them in different places.

Columns and labels:
TTR (transthyretin) = TTR (transthyretin) (Homo sapiens, UniProt P02766); test: percent inhibition of radiolabelled T4 binding to TTR (procedure of R. Somack et al.); settings: for inhibition at 10 µM: read-out: ~% T4 (percent inhibition of radiolabelled T4 binding to TTR); for inhibition at 1 µM: [I] 1 uM
Excerpt: Results are set forth in the following table, wherein "%T4 " represents the percent inhibition of radiolabelled T4 binding to TTR".

[1] = cited from earlier work
human astrocytoma cells = settings: C. M. Divino et al. 1990; cited from earlier work

Row | Molecule | inhibition at 10 µM (TTR (transthyretin); [I] 10 uM) | other results
1 | CC(C)(C)OC(=O)NCCCCCCNC(=O)Cc1cc(I)c(O)c(I)c1 | ~40% | 
2 | NCCOCCOCCNC(=O)Cc1cc(I)c(O)c(I)c1 | ~25% | 
3 | NCCCCCCNC(=O)Cc1cc(I)c(O)c(I)c1 | ~15% | 
4 | O=C(O)c1ccc(-c2cc(I)c(O)c(I)c2)cc1 |  | inhibition at 1 µM (TTR (transthyretin)): ~80%
5 | OCc1cc(I)c(O)c(I)c1 |  | inhibition at 1 µM (TTR (transthyretin)): ~70%
6 | Oc1c(I)cc(I)cc1I |  | inhibition at 10 µM (TTR (transthyretin)): ~90%
7 | O=C(Cc1cc(I)c(O)c(I)c1)OCC#CCO | ~90% | 
8 | CC(C)(C)OC(=O)NCCOCCOCCNC(=O)Cc1cc(I)c(O)c(I)c1 | ~45% | 
9 | superoxide dismutase |  | half-life ([1]; unconjugated, G. D. Mao et al. 1989): five
10 | transthyretin |  | t1/2 ([1]; up to about): up to two; binding to cell sites (human astrocytoma cells): binds to specific high affinity sites on human astrocytoma cells

Continued, in another order:

Row | inhibition at 10 µM (TTR (transthyretin); [I] 10 uM) | Molecule | other results
11 | ~90% | O=C(O)Cc1cc(I)c(Oc2cc(I)c(O)c(I)c2)c(I)c1 | 
12 | ~85% | OCCc1cc(I)c(O)c(I)c1 | 
13 | ~80% | O=C(O)CCc1cc(I)c(O)c(I)c1 | 
14 | ~70% | O=C(O)Cc1cc(I)c(O)c(I)c1 | 
